Data on two compounds can be found in patent publication US20180028622A1, “TREATMENT OF OSTEOPOROSIS” (Entera Bio Ltd., priority 2015, published 2018).

Where two headings read alike, the source gives them in different places. Some results are limits rather than exact numbers.

Data set [1] can be described thus: Open label pharmacokinetic study of oral teriparatide tablet, two visits. Type of data set: in vivo, human. Conditions: for Tmax: human, plasma, po, 0.75 mg; for Tmax / Cmax after 1st administration / Cmax after 2nd administration: oral tablet 0.75 mg teriparatide with SNAC and SBTI. As to the method:
An open label comparative pharmacokinetic study was performed in healthy volunteers over the course of 3 months. Each volunteer received—in each of two visits—the same oral tablet containing 0.75 mg of teriparatide, a recombinant form of parathyroid hormone (1-34).
The formulation was composed of teriparatide (0.75 mg), SNAC (sodium 8-N-(2-hydroxybenzoyl)aminocaprylate), soybean trypsin inhibitor (SBTI) and a small amount of magnesium stearate.
Tablets were administered in the morning after an 8-hour overnight fast and immediately followed by 150 ml of water. At each visit a standard meal was provided 3 hours after drug administration. […] There was a two weeks period between the visits.
(§1) To determine parathyroid hormone(1-34) (PTH(1-34)) concentrations, blood samples (4 ml each) were drawn via an indwelling catheter from the forearm vein at predetermined time points during each visit. The cannula was flushed with 1.5 ml normal saline after each sampling. In addition, to avoid sample dilution, 1 ml of blood was drawn and discarded before the next sample. The blood samples were taken at following times: baseline (predose), 10 minutes, 15 minutes, 20 minutes, 30 minutes, 45 minutes, 60 minutes, 75 minutes, 90 minutes, 105 minutes, 2 hours, 3 hours, 4 hours and 5 hours post-administration. Each blood sample was collected into a single tube containing EDTA (ethylenediaminetetraacetic acid) and placed on ice. Within 15 minutes of blood collection, samples were centrifuged for 10 minutes at 4° C. (2500 rotations per minute) and the plasma was separated and divided into two or three aliquots. Each aliquot was transferred into appropriately labeled polypropylene tubes and stored at approximately −20° C. pending analysis. PTH(1-34) levels were measured using an IDS-iSYS automated assay for the measurement of intact PTH(1-34) in human plasma or serum.

For data set [2], the system named is cAMP, a known marker of PTH activity. Nature of the data set: Plasma cAMP levels after oral or subcutaneous teriparatide. Type of data set: in vivo, human. As to the method:
In addition, plasma levels of cAMP, a known marker of PTH activity, were determined in order to confirm biological activity of administered PTH. cAMP plasma levels were measured following oral administration of 680 μg teriparatide or subcutaneous injection of 20 μg teriparatide, as described hereinabove.

The nature of data set [3]: Phase I clinical study of oral teriparatide formulations vs subcutaneous injection, plasma PTH(1-34). Type of data set: in vivo, human. As to the method:
A Phase I clinical study of exemplary oral formulations comprising teriparatide (parathyroid hormone (1-34)) was conducted at the Hadassah Clinical Research Center. 42 healthy volunteers were included throughout the study.
The formulation was composed of teriparatide (200, 400, 680, 1400 or 1800 μg), SNAC (sodium 8-N-(2-hydroxybenzoyl) aminocaprylate), soybean trypsin inhibitor and magnesium stearate.
Tablets were administered in the morning after an 8-hour overnight fast and immediately followed by 150 ml of water. At each visit a standard meal was provided 3 hours after drug administration.
as §1, with “hormone” for “hormone(1-34) (PTH(1-34))”, “points.” for “points during each visit.”, “(predose),” for “(predose), 10 minutes,”, “15” for “15 minutes, 20”
Oral administration of teriparatide was performed as described hereinabove at doses of 200, 400, 680, 1400 or 1800 μg. The Cmax of PTH(1-34) for each orally administered dose was compared with the Cmax of PTH(1-34) for subcutaneous injection of 20 μg teriparatide.

Data set [4] is described as follows: Pharmacokinetic study of oral teriparatide tablet with water or sodium bicarbonate solution. Format: in vivo, human. Conditions: oral tablet 0.75 mg with 150 ml of 3 mg/ml sodium bicarbonate solution. On the procedure:
An open label comparative pharmacokinetic study was performed on ten healthy volunteers. On different visits, each volunteer received the same oral tablet containing 0.75 mg of teriparatide, a recombinant form of parathyroid hormone (1-34) (PTH(1-34)). In the first visit, the tablet was administered with 150 ml water, whereas in the second visit the tablet was administered with 150 ml of 3 mg/ml sodium bicarbonate aqueous solution.
The formulation was composed of teriparatide (0.75 mg), SNAC (sodium 8-N-(2-hydroxybenzoyl) aminocaprylate), soybean trypsin inhibitor (SBTI) and a small amount of magnesium stearate.
Tablets were administered in the morning after an 8-hour overnight fast. At each visit a standard meal was provided 3 hours after drug administration. […] There was a two week period between the two visits.
To determine PTH(1-34) concentrations, blood samples were drawn and PTH(1-34) levels were measured using an IDS-iSYS automated assay, using procedures described in Example 1 hereinabove. Relative absorption was determined based on the AUC (area under curve) parameter.

A short description of data set [5]: Dissolution test of tablets in simulated gastric buffer, released SNAC by HPLC. Type of data set: physicochemical. Conditions: tablet with 100 mg sodium bicarbonate vs tablet without; simulated gastric buffer pH 2.0, 37° C. On the procedure:
The tablets were in a form of a homogeneous mixture.
Each tablet formulation was subjected to a dissolution test in 100 ml of simulated gastric buffer (without pepsin), pH 2.0, at 37° C., according to USP 23 Apparatus 2 (paddle) with 50 rotations per minute. The amount of released SNAC in each sample was determined chromatographically, using an HPLC apparatus with Cosmosil™ 5 C18-MS-II (4.6 ID×250 mm) column. Mobile phase consisted of 50% acetonitrile and 50% phosphoric acid solution (0.1%). Flow rate was 1 ml/minute and injection volume was 25 μl. Amount of released SNAC was calculated as a percentage of the amount of SNAC in the formulation.

As to `CC[C@H](C)[C@H](NC(=O)[C@H](CCC(=O)O)NC(=O)[C@H](CO)NC(=O)[C@@H](NC(=O)[C@@H](N)CO)C(C)C)C(=O)N[C@@H](CCC(N)=O)C(=O)N[C@@H](CC(C)C)C(=O)N[C@@H](CCSC)C(=O)N[C@@H](Cc1cnc[nH]1)C(=O)N[C@@H](CC(N)=O)C(=O)N[C@@H](CC(C)C)C(=O)NCC(=O)N[C@@H](CCCCN)C(=O)N[C@@H](Cc1cnc[nH]1)C(=O)N[C@@H](CC(C)C)C(=O)N[C@@H](CC(N)=O)C(=O)N[C@@H](CO)C(=O)N[C@@H](CCSC)C(=O)N[C@@H](CCC(=O)O)C(=O)N[C@@H](CCCN=C(N)N)C(=O)N[C@H](C(=O)N[C@@H](CCC(=O)O)C(=O)N[C@@H](Cc1c[nH]c2ccccc12)C(=O)N[C@@H](CC(C)C)C(=O)N[C@@H](CCCN=C(N)N)C(=O)N[C@@H](CCCCN)C(=O)N[C@@H](CCCCN)C(=O)N[C@@H](CC(C)C)C(=O)N[C@@H](CCC(N)=O)C(=O)N[C@@H](CC(=O)O)C(=O)N[C@H](C(=O)N[C@@H](Cc1cnc[nH]1)C(=O)N[C@@H](CC(N)=O)C(=O)N[C@@H](Cc1ccccc1)C(=O)O)C(C)C)C(C)C` [teriparatide], the Tmax in data set [1] (subject A, fasted, plasma PTH(1-34), read-out: Tmax after 1st administration (converted)) is 15 min; in data set [1] (subject A, two weeks after 1st, read-out: Tmax after 2nd administration (converted)), 20 min; in data set [1] (subject B, fasted, plasma PTH(1-34), read-out: Tmax after 1st administration (converted)) it was 10 min; in data set [1] (subject B, two weeks after 1st, read-out: Tmax after 2nd administration (converted)), 20 min; in data set [1] (subject C, fasted, plasma PTH(1-34), read-out: Tmax after 1st administration (converted)), 10 min; in data set [1] (subject C, two weeks after 1st, read-out: Tmax after 2nd administration (converted)) it was 20 min. In data set [1] (oral tablet 0.75 mg), the “time for plasma levels to return to baseline levels after tablet administration” value is not above 60 min. Besides, in data set [1] (oral tablet 0.75 mg, two administrations two weeks apart), the “Cmax between different administrations in a given subject” value is “relatively constant”. The “Cmax after 1st administration” value in data set [1] (subject A, fasted, plasma PTH(1-34)) is given as 195 picogram/ml; in data set [1] (subject B, fasted, plasma PTH(1-34)), 124 picogram/ml; in data set [1] (subject C, fasted, plasma PTH(1-34)), 35 picogram/ml. In addition, the “Cmax after 2nd administration” value in data set [1] (subject A, two weeks after 1st) stood at 283 picogram/ml; in data set [1] (subject B, two weeks after 1st), 116 picogram/ml; in data set [1] (subject C, two weeks after 1st), 36 picogram/ml. Moreover, the “plasma cAMP levels” value in data set [2] (oral administration of 680 μg) and in data set [2] (subcutaneous administration of 20 μg) was “increased plasma cAMP levels to a similar degree” each time. For the same compound, the “decline of PTH levels following oral administration compared with subcutaneous administration” value in data set [3] (oral 1800 μg vs subcutaneous 20 μg) is “declined considerably more rapidly”. Besides, the “Cmax of PTH(1-34) following oral administration, relation to dose” value in data set [3] (oral 200, 400, 680, 1400 or 1800 μg) is reported as “proportional to the dose”. Further, the “oral dose providing a Cmax equivalent to subcutaneous administration of 20 μg teriparatide” value in data set [3] (oral tablet with SNAC and soybean trypsin inhibitor) is given as “roughly 750 μg”. For the same compound, the “increase of absorption (AUC) in comparison with co-administration with water” value in data set [4] is given as “about 35%”.

In the case of `O=C(O)CCCCCCCNC(=O)c1ccccc1O` [SNAC, sodium 8-N-(2-hydroxybenzoyl)aminocaprylate], the “dissolution (release) of SNAC from tablet” value in data set [5] is reported as “considerably enhanced the dissolution”.
